According to patent EP3900788A1, “NON-PRODUCTIVE ANGIOGENESIS INHIBITOR FOR USE IN THE TREATMENT OF ALZHEIMER'S DISEASE” (Consejo Superior de Investigaciones Científicas (CSIC), priority 2020, dated 2021):

Tested on: APP751SL/+ mice
Experiment: Sorafenib treatment of AD mice: angiogenic cell density and Aβ plaques (Thio-S staining) in brain
Format: in vivo
Conditions: 7-month-old APP751SL/+ mice, Sorafenib treatment 1 month vs vehicle

CNC(=O)c1cc(Oc2ccc(NC(=O)Nc3ccc(Cl)c(C(F)(F)F)c3)cc2)ccn1 [Sorafenib]
Aβ plaque load (Thio-S staining of brain): significantly reduced | mean Aβ plaque area (Thio-S staining of brain): significantly reduced | apparition of Iαvβ3+ cells in the brain (Iαvβ3+ cell density) (p < 0.001): strongly reduced
